The record followed here is patent US20080200404A1, “Novel Antimalarial 9A-Carbamoyl-Aminoalkyl and 9A-Thiocarbamoyl-Aminoalkyl Azalides” (priority 2005, published 2008).

Test [1] deals with Plasmodium falciparum clone CDC/Sierra Leone I (D-6). Put plainly: In vitro antimalarial [3H]-hypoxanthine incorporation serial dilution assay, D6. It is filed as cell-based. As to conditions: Plasmodium falciparum, D6, 72 h, P. falciparum D6, 72 hours exposure; read-out: IC50 D6. An excerpt:
(§1) The in vitro screens for intrinsic antimalarial activity were based on modifications of the procedures described by Desjardins R E, Canfield C J, Haynes J D, Chulay J D. (Quantitative assessment of antimalarial activity in vitro by a semiautomated microdilution technique. Antimicrob Agents Chemother. 1979 December; 16(6):710-8.), Chulay J D, Haynes J D, Diggs C L. (Plasmodium falciparum: Assessment of in vitro growth by [3H]hypoxanthine incorporation. Exp. Parasitol. 1983 55:138-146.), and Milhous W K, Weatherly N F, Bowdre J H, Desjardins R E. (In vitro activities of and mechanisms of resistance to antifol antimalarial drugs. Antimicrob Agents Chemother. 1985 April; 27(4):525-30.). The system was limited to the assessment of the intrinsic activity against the erythrocytic asexual life cycle (blood schizontocides). Two Plasmodium falciparum clones from CDC/Indochina III (W-2) and CDC/Sierra Leone I (D-6) (Oduola A M, Weatherly N F, Bowdre J H, Desjardins R E. Plasmodium falciparum: cloning by single-erythrocyte micromanipulation and heterogeneity in vitro. Exp Parasitol. 1988 66(1):86-95.) were used for all assays. TM91C235, a multiple drug resistant isolate from Thailand, was used for the prescreening assay. W-2 is resistant to chloroquine, quinine, and pyrimethamine and susceptible to mefloquine. D-6 tends to be more resistant to mefloquine and susceptible to chloroquine, quinine, and pyrimethamine. All documents cited in this paragraph are incorporated by reference in their entirety.
(§2) All parasites were maintained in continuous long term cultures in RPMI-1640 medium supplemented with 6% washed human A positive (A+)(erythrocytes, 25 mM Hepes, […], and 10% heat inactivated A+human plasma or ALBUMAX® (lipid-rich bovine serum albumin; Invitrogen, Carlsbad, Calif.). All cultures and assays were conducted at 37° C. under an atmosphere of 5% CO2 and 5% O2, with a balance of N2.
(§3) After the preincubation, [^3H]-hypoxanthine was added to each well of the MTP. (The assay relies on the incorporation of radiolabeled hypoxanthine by the parasites, which indicates reproduction, and inhibition of isotope incorporation was attributed to activity of known or candidate antimalarial drugs). After 72 hr of total incubation time, the MTP were frozen to lyse the erythrocytes and parasites. The parasite DNA was recovered by harvesting the lysate onto glass-fiber filter plates using a Packard FilterMate™ Cell Harvester. The radioactivity was counted on a Packard TopCount™ microplate scintillation counter. The results were recorded as counts per minutes (CPM) per well at each drug concentration divided by the arithmetic mean of the CPM from the three untreated infection parasite control wells.
The serial dilution assay was conducted using the same assay conditions and stock solution of the compound used for the preliminary screen, described above. Both the D-6 and the W-2 clones were used. The compounds were diluted two-fold over 11 different concentration ranges with a starting concentration that was based on the preliminary screen. For each drug, the concentration response profile was determined and 50% inhibitory concentrations (IC50) were determined by using a non-linear, logistic dose response analysis program. […] For each assay, the IC50 for each clone was determined against the known antimalarials chloroquine and mefloquine. These control values established the compound's relative parasite susceptibility profile compared to known antimalarials. […]
The in vitro potency of the compounds has been compared with that of azithromycin to better gauge compounds suitable for further testing. As described above, parasites were exposed for 72 hours. Data from the in vitro potency tests of azithromycin against the three parasite strains have been averaged, and these numbers have been used for identification of “active” macrolide compounds.

Test [2] deals with Plasmodium falciparum TM91C235. Put plainly: In vitro antimalarial [3H]-hypoxanthine incorporation assay, TM91C235. It is filed as cell-based. Particulars: Plasmodium falciparum; P. falciparum TM91C235 (multiple drug resistant isolate), 72 hours exposure.
Source text: as §1, §2
The prescreening assay uses TM91C235 diluted at a 0.4% parasitemia in a 1% hematocrit in folic acid free and p-aminobenzoic acid free media RPMI-1640 and ALBUMAX®. One mg of the compound is typically dissolved in 100 μl of dimethyl sulfoxide (DMSO). The compound is further diluted in culture medium (FF) with ALBUMAX® for the first initial starting concentration. The rest of the stock drug solution was kept at −70° C. The isolate was preexposed, in duplicate, at three concentrations (25,000 ng/ml, 2,500 ng/ml, and 25 ng/ml) of the test compound for 48 hr in a 96-well microtiter plate (MTP) using the BIOMEK® 2000 automated laboratory workstation. Each MTP contains chloroquine as control to assess the relative activity of the compound and to monitor the response of TM91C235.
as §3
The serial dilution assay was conducted using the same assay conditions and stock solution of the compound used for the preliminary screen, described above. Both the D-6 and the W-2 clones were used. The compounds were diluted two-fold over 11 different concentration ranges with a starting concentration that was based on the preliminary screen. […]

≈ marks a conversion by molar mass, not a printed value.

`CC[C@H]1OC(=O)[C@H](C)[C@@H](O[C@H]2C[C@@](C)(OC)[C@@H](O)[C@H](C)O2)[C@H](C)[C@@H](O[C@@H]2O[C@H](C)C[C@H](N(C)C)[C@H]2O)[C@](C)(O)C[C@@H](C)CN(CCCNC(=O)Nc2cc(C(=O)OC)cc(C(=O)OC)c2)[C@H](C)[C@@H](O)[C@]1(C)O` [Example 72]: the values for the 50% inhibitory concentration (IC50) in test [1] and in test [2] were 0.665 mg/L (≈ 0.648 µM) and 0.422 mg/L (≈ 0.411 µM), respectively.

Consider `CCOC(=O)CCN(CCCN1C[C@H](C)C[C@@](C)(O)[C@H](O[C@@H]2O[C@H](C)C[C@H](N(C)C)[C@H]2O)[C@@H](C)[C@H](O[C@H]2C[C@@](C)(OC)[C@@H](O)[C@H](C)O2)[C@@H](C)C(=O)O[C@H](CC)[C@@](C)(O)[C@H](O)[C@H]1C)C(=S)NCCCc1ccccc1` [Example 161, 9-Deoxo-9-dihydro-9a-{N′-[β-(ethoxycarbonyl)ethyl]-N′-[γ-(phenylpropyl)thiocarbamoyl]-γ-aminopropyl}-9a-aza-9a-homoerythromycin A], for which the IC50 – broadly, the concentration at which inhibition is half-maximal – was 0.142 mg/L (≈ 0.132 µM) in test [1] and 0.054 mg/L (≈ 0.0505 µM) in test [2].

As for `CC[C@H]1OC(=O)[C@H](C)[C@@H](O[C@H]2C[C@@](C)(OC)[C@@H](O)[C@H](C)O2)[C@H](C)[C@@H](O[C@@H]2O[C@H](C)C[C@H](N(C)C)[C@H]2O)[C@](C)(O)C[C@@H](C)CN(CCCN(CCC(N)=O)C(=S)NCCCc2ccccc2)[C@H](C)[C@@H](O)[C@]1(C)O` [Example 167, 9-Deoxo-9-dihydro-9a-{N′-(β-amidoethyl)-N′-[γ-(phenylpropyl)thiocarbamoyl]-γ-aminopropyl}-9a-aza-9a-homoerythromycin A], the IC50 in test [1] worked out at 0.127 mg/L (≈ 0.122 µM); in test [2], 0.0572 mg/L (≈ 0.055 µM).

For the molecule `CC[C@H]1OC(=O)[C@H](C)[C@@H](O[C@H]2C[C@@](C)(OC)[C@@H](O)[C@H](C)O2)[C@H](C)[C@@H](O[C@@H]2O[C@H](C)C[C@H](N(C)C)[C@H]2O)[C@](C)(O)C[C@@H](C)CN(CCCNC(=O)Nc2ccc(F)c(F)c2)[C@H](C)[C@@H](O)[C@]1(C)O.O=CO` [Example 76], the IC50 in test [1] turned out to be 0.298 mg/L; in test [2], 0.126 mg/L.

As to `CC[C@H]1OC(=O)[C@H](C)[C@@H](O[C@H]2C[C@@](C)(OC)[C@@H](O)[C@H](C)O2)[C@H](C)[C@@H](O[C@@H]2O[C@H](C)C[C@H](N(C)C)[C@H]2O)[C@](C)(O)C[C@@H](C)CN(CCCNC(=S)NC(c2ccccc2)c2ccccc2)[C@H](C)[C@@H](O)[C@]1(C)O` [Example 129], the IC50 in test [1] stood at 0.222 mg/L (≈ 0.218 µM); in test [2], 0.056 mg/L (≈ 0.055 µM).

On to `CC[C@H]1OC(=O)[C@H](C)[C@@H](O[C@H]2C[C@@](C)(OC)[C@@H](O)[C@H](C)O2)[C@H](C)[C@@H](O[C@@H]2O[C@H](C)C[C@H](N(C)C)[C@H]2O)[C@](C)(O)C[C@@H](C)CN(CCCNC(=O)Nc2ccc(C)cc2)[C@H](C)[C@@H](O)[C@]1(C)O` [Example 73], for which the IC50 amounted to 0.305 mg/L (≈ 0.33 µM) in test [1] and 0.128 mg/L (≈ 0.139 µM) in test [2].

Regarding `CC[C@H]1OC(=O)[C@H](C)[C@@H](O[C@H]2C[C@@](C)(OC)[C@@H](O)[C@H](C)O2)[C@H](C)[C@@H](O[C@@H]2O[C@H](C)C[C@H](N(C)C)[C@H]2O)[C@](C)(O)C[C@@H](C)CN(CCCNC(=O)Nc2ccc(C)cc2C)[C@H](C)[C@@H](O)[C@]1(C)O.O=CO` [Example 75], the values for the IC50 in test [1] and in test [2] were 0.479 mg/L and 0.229 mg/L, respectively.

In the case of `CC[C@H]1OC(=O)[C@H](C)[C@@H](O)[C@H](C)[C@@H](O[C@@H]2O[C@H](C)C[C@H](N(C)C)[C@H]2O)[C@](C)(O)C[C@@H](C)CN(CCCN(CCC#N)C(=S)NCCc2ccccc2)[C@H](C)[C@@H](O)[C@]1(C)O` [Example 170], the results for the IC50 in test [1] and in test [2] were 0.543 mg/L (≈ 0.639 µM) and 0.128 mg/L (≈ 0.151 µM), respectively.

As to `CCOC(=O)CCN(CCCN1C[C@H](C)C[C@@](C)(O)[C@H](O[C@@H]2O[C@H](C)C[C@H](N(C)C)[C@H]2O)[C@@H](C)[C@H](O[C@H]2C[C@@](C)(OC)[C@@H](O)[C@H](C)O2)[C@@H](C)C(=O)O[C@H](CC)[C@@](C)(O)[C@H](O)[C@H]1C)C(=S)NCCc1ccccc1` [Example 160, 9-Deoxo-9-dihydro-9a-{N′-[β-(ethoxycarbonyl)ethyl]-N′-[β-(phenylethyl)thiocarbamoyl]-γ-aminopropyl}-9a-aza-9a-homoerythromycin A], the half-inhibitory concentration (IC50) in test [1] was determined as 0.153 mg/L (≈ 0.145 µM); in test [2] it was 0.0683 mg/L (≈ 0.0647 µM).

Consider `CC[C@H]1OC(=O)[C@H](C)[C@@H](O[C@H]2C[C@@](C)(OC)[C@@H](O)[C@H](C)O2)[C@H](C)[C@@H](O[C@@H]2O[C@H](C)C[C@H](N(C)C)[C@H]2O)[C@](C)(O)C[C@@H](C)CN(CCCNC(=O)Nc2cccc(SC)c2)[C@H](C)[C@@H](O)[C@]1(C)O` [Example 71], for which the figures for the IC50 in test [1] and in test [2] were 0.318 mg/L (≈ 0.332 µM) and 0.131 mg/L (≈ 0.137 µM), respectively.

In the case of `CC[C@H]1OC(=O)[C@H](C)[C@@H](O[C@H]2C[C@@](C)(OC)[C@@H](O)[C@H](C)O2)[C@H](C)[C@@H](O[C@@H]2O[C@H](C)C[C@H](N(C)C)[C@H]2O)[C@](C)(O)C[C@@H](C)CN(CCCNC(=S)NC2CCCCCCCCCCC2)[C@H](C)[C@@H](O)[C@]1(C)O.O=CO` [Example 116], the IC50 in test [1] was found to be 0.281 mg/L; in test [2] it was 0.149 mg/L.

In the case of `CCOC(=O)CCN(CCCN1C[C@H](C)C[C@@](C)(O)[C@H](O[C@@H]2O[C@H](C)C[C@H](N(C)C)[C@H]2O)[C@@H](C)[C@H](O[C@H]2C[C@@](C)(OC)[C@@H](O)[C@H](C)O2)[C@@H](C)C(=O)O[C@H](CC)[C@@](C)(O)[C@H](O)[C@H]1C)C(=O)NC(C)c1cccc2ccccc12` (stereo partly drawn) [Example 163], the IC50 in test [1] turned out to be 0.135 mg/L (≈ 0.124 µM); in test [2], 0.0679 mg/L (≈ 0.0623 µM).

`CCOC(=O)CCN(CCCN1C[C@H](C)C[C@@](C)(O)[C@H](O[C@@H]2O[C@H](C)C[C@H](N(C)C)[C@H]2O)[C@@H](C)[C@H](O[C@H]2C[C@@](C)(OC)[C@@H](O)[C@H](C)O2)[C@@H](C)C(=O)O[C@H](CC)[C@@](C)(O)[C@H](O)[C@H]1C)C(=S)NCc1ccccc1` [Example 162, 9-Deoxo-9-dihydro-9a-{N′-[β-(ethoxycarbonyl)ethyl]-N′-benzylthiocarbamoyl-γ-aminopropyl]-9a-aza-9a-homoerythromycin A]: the values for the IC50 in test [1] and in test [2] were 0.104 mg/L (≈ 0.1 µM) and 0.0693 mg/L (≈ 0.0665 µM), respectively.

As for `CC[C@H]1OC(=O)[C@H](C)[C@@H](O[C@H]2C[C@@](C)(OC)[C@@H](O)[C@H](C)O2)[C@H](C)[C@@H](O[C@@H]2O[C@H](C)C[C@H](N(C)C)[C@H]2O)[C@](C)(O)C[C@@H](C)CN(CCCNC(=O)NCC2CCCCC2)[C@H](C)[C@@H](O)[C@]1(C)O` [Example 74], the concentration for half-maximal inhibition (IC50) in test [1] was determined as 0.568 mg/L (≈ 0.609 µM); in test [2], 0.133 mg/L (≈ 0.142 µM).

As to `CC[C@H]1OC(=O)[C@H](C)[C@@H](O[C@H]2C[C@@](C)(OC)[C@@H](O)[C@H](C)O2)[C@H](C)[C@@H](O[C@@H]2O[C@H](C)C[C@H](N(C)C)[C@H]2O)[C@](C)(O)C[C@@H](C)CN(CCCNC(=O)NC(C)(C)CC(C)(C)C)[C@H](C)[C@@H](O)[C@]1(C)O.O=CO` [Example 78], the IC50 in test [1] is 0.267 mg/L; in test [2], 0.182 mg/L.
